Results taken from PMC4672894, “Bromodomain Proteins Contribute to Maintenance of Bloodstream Form Stage Identity in the African Trypanosome” (PLoS Biology, 2015).

Legend:
Experiment in all cases: isothermal titration calorimetry
Assay type in all cases: binding
[1] = molecular target: T1, Bdf2 bromodomain (Bdf2^9-123) (Trypanosoma brucei, UniProt Q38AM1)
T1 construct: gene Tb10.6k15.3240; bromodomain, residues 9-123, amplified from genomic DNA, pET28a with N-terminal PreScission-cleavable His6 tag, E. coli; crystal model residues 9-114
T1 sequence (Q38AM1 9-123): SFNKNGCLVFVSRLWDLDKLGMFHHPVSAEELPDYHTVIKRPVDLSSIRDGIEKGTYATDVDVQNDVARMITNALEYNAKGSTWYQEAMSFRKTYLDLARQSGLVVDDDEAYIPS
Description: isothermal titration calorimetry on Bdf2 bromodomain (Bdf2^9-123) | confirmed direct and specific binding of I-BET151 to their AcK recognition sites

[2] = molecular target: T2, Bdf3 bromodomain (Bdf3^32-150) (Trypanosoma brucei, UniProt Q383S2)
T2 construct: gene Tb11.01.1830; bromodomain, residues 32-150, amplified from genomic DNA, pET28a with N-terminal PreScission-cleavable His6 tag, E. coli; strain-construction section prints a conflicting locus Tb427.01.1830
T2 sequence (Q383S2 32-150): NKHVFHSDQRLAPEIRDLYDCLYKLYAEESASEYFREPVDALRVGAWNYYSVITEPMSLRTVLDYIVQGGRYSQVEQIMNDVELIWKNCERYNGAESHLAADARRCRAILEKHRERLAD
Description: isothermal titration calorimetry on Bdf3 bromodomain (Bdf3^32-150) | confirmed direct and specific binding of I-BET151 to their AcK recognition sites

[3] = molecular target: T2, Bdf3 bromodomain (Bdf3^32-150); conditions: 15°C, pH 7.5, 20 mM Hepes, 150 mM NaCl, 0.5 mM TCEP, 1% DMSO
[4] = molecular target: T1, Bdf2 bromodomain (Bdf2^9-123); conditions: 15°C, pH 7.5, 20 mM Hepes, 150 mM NaCl, 0.5 mM TCEP, 1% DMSO

| SMILES | Kd [1] [µM] | Kd [2] [µM] | no binding detected [3] | no binding detected [4] |
| --- | --- | --- | --- | --- |
| COc1cc2c(cc1-c1c(C)noc1C)ncc1[nH]c(=O)n([C@H](C)c3ccccn3)c12 [I-BET151] | 225 ± 5 | 175 ± 10 |  |  |
| Cc1sc2c(c1C)C(c1ccc(Cl)cc1)=N[C@@H](CC(=O)OC(C)(C)C)c1nnc(C)n1-2 [JQ1] |  |  | we could not detect binding of another well characterized bromodomain inhibitor, JQ1 | we could not detect binding of another well characterized bromodomain inhibitor, JQ1 |
